Reference: PubChem BioAssay (NCI)
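Following 48 hours of exposure in 96-well plates, responses at five concentrations were used to interpolate endpoints linearly. At the TGI there is no net growth.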

Key:
Assay in all cases: NCI anticancer screen, dose series, 48 h
OVCAR-8 ovarian = test system: OVCAR-8 ovarian
DMS 273 small cell lung = test system: DMS 273 small cell lung
SK-OV-3 ovarian = test system: SK-OV-3 ovarian
HL-60(TB) leukemia = test system: HL-60(TB) leukemia
HCC-2998 colon = test system: HCC-2998 colon
CCRF-CEM leukemia = test system: CCRF-CEM leukemia
M19-MEL melanoma = test system: M19-MEL melanoma
BT-549 breast = test system: BT-549 breast
T-47D breast = test system: T-47D breast
SN12C renal = test system: SN12C renal
PC-3 prostate = test system: PC-3 prostate

**Q.** For `COC1=CC(=O)C2C(C1=O)[C@@H]1c3ccccc3OC[C@H]21` (stereo partly drawn), which TGI (OVCAR-8 ovarian) is on record?
**A.** > 100 µM

**Q.** What about the TGI (DMS 273 small cell lung) of the same compound?
**A.** > 100 µM

**Q.** What about the TGI (SK-OV-3 ovarian) of the same compound?
**A.** > 100 µM

**Q.** What about the TGI (HL-60(TB) leukemia) of the same compound?
**A.** > 100 µM

**Q.** What about the TGI (HCC-2998 colon) of the same compound?
**A.** > 100 µM

**Q.** What about the TGI (CCRF-CEM leukemia) of the same compound?
**A.** > 100 µM

**Q.** Which results are given for `CCN1CCC(O)(/C=C/c2ccc(Cl)cc2)C(C(=O)/C=C/c2ccc(Cl)cc2)C1` (stereo not drawn)?
**A.** TGI (OVCAR-8 ovarian): 61.3 µM; TGI (M19-MEL melanoma): 92.9 µM; TGI (DMS 273 small cell lung): 60.2 µM; TGI (SK-OV-3 ovarian): 61.7 µM; TGI (HL-60(TB) leukemia): > 100 µM; TGI (HCC-2998 colon): 32.8 µM; TGI (CCRF-CEM leukemia): > 100 µM

**Q.** For `O=c1cc(-c2cccc(Br)c2)[nH]c2cc3c(cc12)OCO3`, which TGI (BT-549 breast) is on record?
**A.** 14.4 µM

**Q.** What about the TGI (OVCAR-8 ovarian) of the same compound?
**A.** 17.3 µM

**Q.** What about the TGI (M19-MEL melanoma) of the same compound?
**A.** > 100 µM

**Q.** And the TGI (DMS 273 small cell lung)?
**A.** 22.4 µM

**Q.** And the TGI (SK-OV-3 ovarian)?
**A.** 17 µM

**Q.** What about the TGI (T-47D breast) of the same compound?
**A.** 36.5 µM

**Q.** And the TGI (HL-60(TB) leukemia)?
**A.** > 100 µM

**Q.** What about the TGI (SN12C renal) of the same compound?
**A.** > 55.9 µM

**Q.** And the TGI (HCC-2998 colon)?
**A.** 63 µM

**Q.** What about the TGI (CCRF-CEM leukemia) of the same compound?
**A.** > 100 µM

**Q.** And the TGI (PC-3 prostate)?
**A.** > 100 µM

**Q.** `C/C=C1/C(=O)O[C@]23C=C[C@@H]4C(C(=O)OC)=CO[C@H](O[C@@H]12)[C@@H]43` was tested. Which TGI (OVCAR-8 ovarian) did it give?
**A.** 11.4 µM

**Q.** What about the TGI (M19-MEL melanoma) of the same compound?
**A.** 4.38 µM

**Q.** And the TGI (DMS 273 small cell lung)?
**A.** 39.9 µM

**Q.** What about the TGI (SK-OV-3 ovarian) of the same compound?
**A.** 9.75 µM

**Q.** And the TGI (HL-60(TB) leukemia)?
**A.** 3.06 µM

**Q.** And the TGI (SN12C renal)?
**A.** 4.88 µM

**Q.** What about the TGI (HCC-2998 colon) of the same compound?
**A.** 5.99 µM

**Q.** And the TGI (CCRF-CEM leukemia)?
**A.** 3.56 µM

**Q.** `CCOC(=O)C1C(=O)c2cccc(OC)c2C2COC(=O)N12` (stereo not drawn) was tested. Which TGI (OVCAR-8 ovarian) did it give?
**A.** > 100 µM

**Q.** What about the TGI (M19-MEL melanoma) of the same compound?
**A.** > 100 µM

**Q.** And the TGI (DMS 273 small cell lung)?
**A.** > 100 µM

**Q.** What about the TGI (SK-OV-3 ovarian) of the same compound?
**A.** > 100 µM

**Q.** What about the TGI (HL-60(TB) leukemia) of the same compound?
**A.** > 100 µM

**Q.** What about the TGI (SN12C renal) of the same compound?
**A.** > 100 µM

**Q.** And the TGI (HCC-2998 colon)?
**A.** > 100 µM

**Q.** And the TGI (CCRF-CEM leukemia)?
**A.** > 100 µM

**Q.** How did the TGI (OVCAR-8 ovarian) turn out when `Nc1nc2c(ncn2CC(CO)CC(c2ccccc2)P(=O)(O)O)c(=O)[nH]1` (stereo not drawn) was run?
**A.** > 100 µM

**Q.** And the TGI (M19-MEL melanoma)?
**A.** > 100 µM

**Q.** What about the TGI (DMS 273 small cell lung) of the same compound?
**A.** > 100 µM

**Q.** And the TGI (SK-OV-3 ovarian)?
**A.** > 100 µM

**Q.** What about the TGI (HL-60(TB) leukemia) of the same compound?
**A.** > 100 µM

**Q.** What about the TGI (SN12C renal) of the same compound?
**A.** > 100 µM

**Q.** And the TGI (HCC-2998 colon)?
**A.** > 100 µM

**Q.** What about the TGI (CCRF-CEM leukemia) of the same compound?
**A.** > 100 µM

**Q.** For `COc1cc2c(cc1O)N=C[C@@H]1CCC(O)N1C2=O` (mixture of isomers), which TGI (OVCAR-8 ovarian) is on record?
**A.** 10 µM

**Q.** What about the TGI (M19-MEL melanoma) of the same compound?
**A.** 4.81 µM

**Q.** And the TGI (DMS 273 small cell lung)?
**A.** 19.6 µM

**Q.** And the TGI (SK-OV-3 ovarian)?
**A.** 84 µM

**Q.** And the TGI (HL-60(TB) leukemia)?
**A.** 11.1 µM

**Q.** What about the TGI (SN12C renal) of the same compound?
**A.** 19.1 µM

**Q.** And the TGI (HCC-2998 colon)?
**A.** 2.81 µM

**Q.** What about the TGI (CCRF-CEM leukemia) of the same compound?
**A.** 1.66 µM

**Q.** With `Cc1nc2c(s/c(=N\N)n2-c2ccccc2)c(=O)n1C` as the compound, how does the TGI (OVCAR-8 ovarian) read?
**A.** > 100 µM

**Q.** What about the TGI (M19-MEL melanoma) of the same compound?
**A.** > 100 µM

**Q.** What about the TGI (DMS 273 small cell lung) of the same compound?
**A.** > 100 µM

**Q.** What about the TGI (SK-OV-3 ovarian) of the same compound?
**A.** > 100 µM

**Q.** What about the TGI (HL-60(TB) leukemia) of the same compound?
**A.** > 100 µM

**Q.** What about the TGI (SN12C renal) of the same compound?
**A.** > 100 µM

**Q.** What about the TGI (HCC-2998 colon) of the same compound?
**A.** > 100 µM

**Q.** And the TGI (CCRF-CEM leukemia)?
**A.** > 100 µM

**Q.** `NCCSc1nc(N)c2ncn(C3OC(CO)C(O)C3O)c2n1` (stereo not drawn) was tested. Which TGI (OVCAR-8 ovarian) did it give?
**A.** > 100 µM

**Q.** What about the TGI (M19-MEL melanoma) of the same compound?
**A.** > 100 µM

**Q.** And the TGI (DMS 273 small cell lung)?
**A.** > 100 µM

**Q.** And the TGI (SK-OV-3 ovarian)?
**A.** > 100 µM

**Q.** What about the TGI (HL-60(TB) leukemia) of the same compound?
**A.** > 100 µM

**Q.** And the TGI (SN12C renal)?
**A.** > 100 µM

**Q.** And the TGI (HCC-2998 colon)?
**A.** > 100 µM

**Q.** What about the TGI (CCRF-CEM leukemia) of the same compound?
**A.** > 100 µM

**Q.** What does the source list for `C#CC1(O)CC(c2ccccc2)N(C)C(c2ccccc2)C1` (stereo not drawn)?
**A.** TGI (OVCAR-8 ovarian): > 100 µM; TGI (M19-MEL melanoma): > 100 µM; TGI (DMS 273 small cell lung): > 100 µM; TGI (SK-OV-3 ovarian): > 100 µM; TGI (HL-60(TB) leukemia): > 100 µM; TGI (SN12C renal): > 100 µM; TGI (HCC-2998 colon): > 100 µM; TGI (CCRF-CEM leukemia): > 100 µM

**Q.** For `O=C1NC(=O)C2(CCc3ccc(N(CCCl)CCCl)cc32)N1` (stereo not drawn), which TGI (OVCAR-8 ovarian) is on record?
**A.** 36.2 µM

**Q.** What about the TGI (M19-MEL melanoma) of the same compound?
**A.** 39.5 µM

**Q.** And the TGI (DMS 273 small cell lung)?
**A.** 16 µM

**Q.** And the TGI (SK-OV-3 ovarian)?
**A.** 47 µM

**Q.** What about the TGI (HL-60(TB) leukemia) of the same compound?
**A.** 9.75 µM

**Q.** And the TGI (SN12C renal)?
**A.** > 100 µM

**Q.** And the TGI (HCC-2998 colon)?
**A.** 34.1 µM

**Q.** What about the TGI (CCRF-CEM leukemia) of the same compound?
**A.** > 79.7 µM

**Q.** How did the TGI (OVCAR-8 ovarian) turn out when `O=c1[nH]c(Br)nc2c(N3CCCCC3)c[nH]c12` was run?
**A.** > 100 µM

**Q.** What about the TGI (M19-MEL melanoma) of the same compound?
**A.** > 100 µM

**Q.** And the TGI (DMS 273 small cell lung)?
**A.** > 100 µM

**Q.** What about the TGI (SK-OV-3 ovarian) of the same compound?
**A.** > 100 µM

**Q.** And the TGI (HL-60(TB) leukemia)?
**A.** > 100 µM

**Q.** And the TGI (SN12C renal)?
**A.** > 100 µM

**Q.** And the TGI (CCRF-CEM leukemia)?
**A.** > 100 µM

**Q.** What does the source list for `Cc1ccc(C(=O)C(C)N)cc1C` (stereo not drawn)?
**A.** TGI (OVCAR-8 ovarian): > 100 µM; TGI (M19-MEL melanoma): > 100 µM; TGI (SK-OV-3 ovarian): > 100 µM; TGI (SN12C renal): > 100 µM; TGI (HCC-2998 colon): > 100 µM; TGI (CCRF-CEM leukemia): > 100 µM

**Q.** With `N=c1oc2ccc(Cl)cc2cc1C(=O)NC1CCCCC1` as the compound, how does the TGI (BT-549 breast) read?
**A.** > 100 µM

**Q.** What about the TGI (OVCAR-8 ovarian) of the same compound?
**A.** > 100 µM

**Q.** What about the TGI (SK-OV-3 ovarian) of the same compound?
**A.** > 100 µM

**Q.** What about the TGI (T-47D breast) of the same compound?
**A.** > 100 µM

**Q.** What about the TGI (HL-60(TB) leukemia) of the same compound?
**A.** > 100 µM

**Q.** What about the TGI (SN12C renal) of the same compound?
**A.** > 100 µM

**Q.** And the TGI (HCC-2998 colon)?
**A.** 89.1 µM

**Q.** What about the TGI (CCRF-CEM leukemia) of the same compound?
**A.** > 100 µM

**Q.** What about the TGI (PC-3 prostate) of the same compound?
**A.** > 100 µM

**Q.** Which TGI (BT-549 breast) does the source give for `CC1(C)N=C(N)N=C(N)N1CCCCc1ccccc1` here?
**A.** > 100 µM

**Q.** What about the TGI (OVCAR-8 ovarian) of the same compound?
**A.** > 100 µM

**Q.** And the TGI (SK-OV-3 ovarian)?
**A.** 97.5 µM

**Q.** What about the TGI (T-47D breast) of the same compound?
**A.** > 78.1 µM

**Q.** What about the TGI (HL-60(TB) leukemia) of the same compound?
**A.** > 31.1 µM

**Q.** What about the TGI (SN12C renal) of the same compound?
**A.** > 54.4 µM

**Q.** What about the TGI (HCC-2998 colon) of the same compound?
**A.** > 51 µM

**Q.** And the TGI (CCRF-CEM leukemia)?
**A.** > 100 µM

**Q.** What about the TGI (PC-3 prostate) of the same compound?
**A.** > 77 µM

**Q.** What does the source list for `COc1cc2c3c4c1OCc1c5c(cc(c1-4)CC3[N+](C)(C)CC2)OCO5` (stereo not drawn)?
**A.** TGI (BT-549 breast): 12.3 µM; TGI (OVCAR-8 ovarian): > 100 µM; TGI (SK-OV-3 ovarian): > 100 µM; TGI (T-47D breast): > 100 µM; TGI (HL-60(TB) leukemia): > 100 µM; TGI (SN12C renal): 39.4 µM; TGI (HCC-2998 colon): > 100 µM; TGI (CCRF-CEM leukemia): > 100 µM; TGI (PC-3 prostate): > 100 µM
